pIC50: −log10 of the molar value. Structures can show the parent of a compound that is named as a salt.
Experiments:
Design in all cases: species or system Homo sapiens
[1] = Inhibition of purified CDK2/Cyclin A (unknown origin)
[2] = Inhibition of purified PDGFR (unknown origin)
[3] = Inhibition of purified FGFR (unknown origin)

Measured: pIC50

C=CC(=O)Nc1cc2c(Nc3ccc(F)c(Cl)c3)ncnc2cc1OCCCN1CCOCC1 [CANERTINIB DIHYDROCHLORIDE]
< 4.30: all assays above

Source: ChEMBL document CHEMBL5653597, “CI-1033, an irreversible pan-erbB receptor inhibitor and its potential application for the treatment of breast cancer” (Semin Oncol, 2003)
